These are literature values, as cited in US20240091148A1, “EUTECTIC SOLVENTS COMPRISING PHARMACEUTICAL AGENTS, AND METHODS OF MAKING AND USE THEREOF” (Novilla Pharmaceuticals, Inc., priority 2018, published 2024).

The conditions of this data set: values stated in the description, no method or source given.

As to `CCCC1O[C@@H]2C[C@H]3[C@@H]4CCC5=CC(=O)C=C[C@]5(C)[C@H]4[C@@H](O)C[C@]3(C)[C@]2(C(=O)CO)O1` (stereo partly drawn) [budesonide], the pKa is 13-15.

For the compound `C[C@@H]1C[C@H]2[C@@H]3C[C@H](F)C4=CC(=O)C=C[C@]4(C)[C@@]3(F)[C@@H](O)C[C@]2(C)[C@@]1(O)C(=O)SCF` [fluticasone], the pKa is given as 12-14.

`C[C@@H]1C[C@H]2[C@@H]3CCC4=CC(=O)C=C[C@]4(C)[C@@]3(Cl)[C@@H](O)C[C@]2(C)[C@@]1(O)C(=O)CCl` [mometasone]: the pKa is listed as 12-13.

For the compound `CC(C)C(=O)OCC(=O)[C@@]12O[C@H](C3CCCCC3)O[C@@H]1C[C@H]1[C@@H]3CCC4=CC(=O)C=C[C@]4(C)[C@H]3[C@@H](O)C[C@@]12C` [ciclesonide], the pKa is listed as 14-16.

Consider `C[C@H]1C[C@H]2[C@@H]3CCC4=CC(=O)C=C[C@]4(C)[C@@]3(Cl)[C@@H](O)C[C@]2(C)[C@@]1(O)C(=O)CO` [beclomethasone], for which the pKa is reported as 13-16.

With `CN(C)CCOC(C)(c1ccccc1)c1ccccn1` (stereo not drawn) [doxylamine], the pKa is 8.7-9.2.
